# Data reported in US20210386829A1, “COMPOSITIONS AND METHODS FOR MODULATING CGRP SIGNALING TO REGULATE INNATE LYMPHOID CELL INFLAMMATORY RESPONSES” (The Broad Institute, Inc., priority 2018, published 2021).
# “Also recorded” adds a separate entry of the source.
# Tested on: lung ILCs
# Experiment: culture of sort-purified lung ILCs with IL-7, IL-33 or IL-25+NMU with or without CGRP (qPCR, LegendPlex, intracellular cytokine staining)
# Assay type: cell-based, mouse
# Description: ILC in vitro culture. For in vitro experiments 5,000 ILCs/well were cultured in a 96 well round bottom plate with 20 ng/ml IL-7 (R&D Systems), 200 ng/ml IL-25 (R&D Systems) or 20 ng/ml, 2 ng/ml or 0.2 ng/ml IL-33 (BioLegend) with or without 1 μg/ml Neuromedin U (US Biological). In some cases purified CD90.2^+ lung cells were first labeled with CellTrace Violet (Thermo Fisher Scientific), then sorted as described above, and cultured for 3 days under the indicated conditions.
# Quantitative real-time PCR. RNA was isolated using RNeasy Plus Mini Kit (Qiagen) and reverse transcribed to cDNA with iScript cDNA Synthesis Kit (Bio-Rad). Gene expression was analyzed by quantitative real-time PCR on a ViiA7 System (Thermo Fisher Scientific) using TaqMan Fast Advanced Master Mix (Thermo Fisher Scientific) with the following primer/probe sets: Il5 (Mm00439646_m1), Il13 (Mm00434204_m1), Il17rb (Mm00444709_m1), Nmur1 (Mm04207994_m1), Nmur2 (Mm00600704_m1), Nmu (Mm00479868_m1) and Actb (Applied Biosystems). Expression values were calculated relative to Actb detected in the same sample by duplex qPCR.
# Cytokine quantification. Cytokine concentrations in BAL fluid, lung and supernatant of in vitro ILC cultures were analyzed by the LegendPlex Mouse Th Cytokine Panel (13-plex) (BioLegend) according to the manufacturer's instructions and analyzed on a FACS Calibur (BD Biosciences).
# Culture of innate lymphoid cells. Sort-purified innate lymphoid cells (ILCs) were cultured under sterile conditions in complete medium in a humidified incubator at 37° C. and 10% CO2. ILCs were plated at a density of 3,000-5,000 ILCs per well in a 96 well round-bottom plate in cell culture medium with 20 ng/ml IL-7. Depending on the experiment, different combinations of 200 ng/ml IL-25, 200 ng/ml IL-33, 1 ug/ml NMU and 100 nM CGRP were added either at start or after overnight culture with 20 ng/ml IL-7. […]
# For flow cytometric analysis, lung cells were transferred into a 96 well V-bottom plate and stained with surface antibodies for 20 min at 4° C. in the dark. Cells were washed twice with DPBS containing 2% fetal bovine serum and transferred into 1.2 ml tubes for analysis by flow cytometry. For intracellular cytokine staining, cells were incubated in complete cell culture medium with 50 ng/ml phorbol 12-myristate 13-acetate (Sigma-Aldrich), 1 uM ionomycin (Sigma-Aldrich) and GolgiStop (Cat #554724; BD Biosciences) in a humidified incubator at 37° C. and 10% CO2. After 5 hours, cells were transferred into 96 well V-bottom plate, stained with Fixable Viability Dye eFluor 506 (Cat #65-0866-14; Thermo Fisher) and surface antibodies for 20 min at 4° C. in the dark and washed twice with DPBS containing 2% fetal bovine serum. Then, cells were incubated with BD Cytofix/Cytoperm Buffer (Cat #51-2090KZ; BD Biosciences) for 20 min, followed by a wash with BD Perm/Wash Buffer (Cat #51-2091KZ; BD Biosciences). Subsequently, cells were incubated with antibodies targeting intracellular proteins diluted in BD Perm/Wash Buffer for 20 min and after two wash steps, transferred into 1.2 ml tubes for analysis by flow cytometry. For ki67 staining, cells were stained for surface antibodies as described above, fixed with a solution of Fixation/Permeabilization Concentrate (Cat #00-5123-43; Invitrogen) and Fixation/Perm Diluent (Cat #00-5223-56; Invitrogen) for 20 min, washed with Permeabilization Buffer (Cat #00-8333-56; Invitrogen). Then, cells were incubated with ki67 antibody diluted in Permeabilization Buffer for 20 min, washed and transferred into FACS tubes. Cells were analyzed on a BD LSRFortessa (BD Biosciences) flow cytometer with 5 lasers (355 nm, 405 nm, 488 nm, 561 nm and 640 nm). Data was analyzed using FlowJo v10.5.0 software and cell populations were gated as described previously (Wallrapp 2017).
# RNA isolation and cDNA synthesis. […]
# [1] = IL-7+CGRP vs IL-7 alone, 6 hours
# [2] = IL-33+CGRP vs IL-33 alone, 6 hours
# [3] = IL-33+CGRP vs IL-33 alone, 3 days
# [4] = IL-33+CGRP vs IL-33 alone, 3 days culture
substance,measurement,setting,value
"CGRP: neuropeptide calcitonin gene-related peptide (encoded by Calca), ligand of the Ramp1/Calcrl receptor; given at 100 nM in vitro, 6.65 ug nasally",Il5 expression in ILC2s (qPCR),[1],upregulated
same,Il13 expression in ILC2s (qPCR),[1],downregulated
same,amphiregulin (Areg) expression in ILC2s (qPCR),[1],trend of increased expression
same,"type 2 cytokine (IL-5, IL-13) production at mRNA and protein level in ILCs","IL-25+NMU+CGRP vs IL-25+NMU, 3 days",significantly reduced
same,Areg expression in ILC2s (qPCR),[2],significantly increased
same,Il5 expression in ILC2s (qPCR),[2],significantly increased
same,Il13 expression in ILC2s (qPCR),[2],significantly decreased
same,IL-13 produced per cell (MFI),[3],less
same,amount of IL-5 expressed per cell (MFI),[3],significant decreases
same,frequency of IL-5-producing ILCs (flow cytometry),[3],significant decreases
same,frequency of IL-13+ ILCs (flow cytometry),[3],lower
same,Areg expression in ILCs (qPCR),[4],increased
same,IL-5 production at RNA and protein level in ILCs,[4],reduces; also recorded: significantly reduced
same,IL-13 production at RNA and protein level in ILCs,[4],reduces; also recorded: significantly reduced; also recorded: remains repressed
same,IL-5 protein production (intracellular cytokine staining),short-term (8 hours) CGRP+IL33 vs IL-33 alone,induced
same,frequency of IL-13-positive ILC2s (intracellular cytokine staining),short-term (8 hours) treatment with CGRP+IL33,2%
